Experimental data taken from publication PMC3967790 (Journal of pharmaceutical sciences, 2013).
≈ marks a conversion by molar mass, not a printed value. Where two headings read alike, the source gives them in different places.

Columns and labels:
[1] = Equilibrium solubility of elacridar in microemulsion components; format: physicochemical; conditions: 37 °C, oil or lipid, thermodynamic from solid
[2] = mouse, cited from earlier work
[3] = FVB, mouse, brain, oral, 20 mg/kg

| Structure (SMILES) | solubility at 24 h ([1]; Captex 300 (oil)) | solubility at 24 h ([1]; Captex 355 (oil)) | bioavailability ([2]; intraperitoneal dose, suspension) | bioavailability ([2]; oral dose, suspension at 100 mg/kg) | concentration at 1 h [3] |
| --- | --- | --- | --- | --- | --- |
| COc1cc2c(cc1OC)CN(CCc1ccc(NC(=O)c3cccc4c(=O)c5cccc(OC)c5[nH]c34)cc1)CC2 [elacridar, N-(4-(2-(1,2,3,4-tetrahydro-6,7-dimethoxy-2-isoquinolinyl)ethyl)phenyl)-9,10-dihydro-5-methoxy-9-oxo-4-acridine carboxamide] | 300 ± 1 µg/mL (≈ 532 µM) | 300 ± 1 µg/mL (≈ 532 µM) | ~1% | about 22% |  |
| C#Cc1cccc(Nc2ncnc3cc(OCCOC)c(OCCOC)cc23)c1 [erlotinib] |  |  |  |  | 76.4 ± 7.8 ng/mL |
